Literature values as cited in US7098376B2, “Transgenic mouse expressing constitutively active hydrocarbon receptor” (InDex Pharmaceuticals AB, priority 2000, dated 2006).

Test system: mouse models

Q: What does the source list for `Clc1cc2c(cc1Cl)Oc1cc(Cl)c(Cl)cc1O2` [TCDD, 2,3,7,8-tetrachlorodibenzo-p-dioxin]?
A: dose at which weight loss or impaired weight gain are detected (mice exposed to TCDD): higher than 3 μg/kg body weight; acute toxic effects (e.g. lethality or the wasting syndrome) (single dose of 3 μg TCDD/kg body weight, mouse models): no acute toxic effects
